Assay results reported in PubChem BioAssay (NCI).
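Test compounds were applied to cells in 96-well plates for 48 hours at 5 doses. TGI is the concentration that stops growth completely.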 Where a SMILES comes first, the peptide text is derived from it. The star is where a group is joined. Boc = CC(C)(C)OC(=O)*

Key:
Test in all cases: NCI-60 cell line screen, 48 h
SK-MEL-2 melanoma = tested on: SK-MEL-2 melanoma
SNB-75 CNS = tested on: SNB-75 CNS
OVCAR-8 ovarian = tested on: OVCAR-8 ovarian
MDA-MB-435 = tested on: MDA-MB-435
DU-145 prostate = tested on: DU-145 prostate
EKVX NSCLC = tested on: EKVX NSCLC
UO-31 renal = tested on: UO-31 renal
RPMI-8226 leukemia = tested on: RPMI-8226 leukemia
TK-10 renal = tested on: TK-10 renal
HCC-2998 colon = tested on: HCC-2998 colon

O=C(CSC1=NCCN1)c1ccccc1
TGI (SK-MEL-2 melanoma): > 100 µM | TGI (SNB-75 CNS): > 100 µM | TGI (OVCAR-8 ovarian): > 100 µM | TGI (MDA-MB-435): > 100 µM | TGI (DU-145 prostate): > 100 µM | TGI (EKVX NSCLC): > 100 µM | TGI (UO-31 renal): > 100 µM | TGI (RPMI-8226 leukemia): > 100 µM | TGI (TK-10 renal): > 100 µM

CC(NC(=O)C(NC(=O)OC(C)(C)C)C(C)C)C(=O)NCC(=O)O (stereo not drawn) (Boc-Val-Ala-Gly-OH; configuration not given here)
TGI (SK-MEL-2 melanoma): > 100 µM | TGI (OVCAR-8 ovarian): > 100 µM | TGI (MDA-MB-435): > 100 µM | TGI (DU-145 prostate): > 100 µM | TGI (EKVX NSCLC): > 100 µM | TGI (UO-31 renal): > 100 µM | TGI (HCC-2998 colon): > 100 µM | TGI (RPMI-8226 leukemia): > 100 µM | TGI (TK-10 renal): > 100 µM

COc1ccc(CNc2nc3ccccc3nc2-c2cccs2)cc1
TGI (SNB-75 CNS): > 100 µM | TGI (OVCAR-8 ovarian): > 100 µM | TGI (MDA-MB-435): > 100 µM | TGI (DU-145 prostate): > 100 µM | TGI (EKVX NSCLC): > 100 µM | TGI (UO-31 renal): 71.1 µM | TGI (HCC-2998 colon): > 100 µM | TGI (RPMI-8226 leukemia): > 100 µM | TGI (TK-10 renal): > 100 µM

O=C1NC(N2CCOCC2)=N/C1=C\c1ccccc1O
TGI (SK-MEL-2 melanoma): > 100 µM | TGI (SNB-75 CNS): > 100 µM | TGI (OVCAR-8 ovarian): > 100 µM | TGI (MDA-MB-435): > 100 µM | TGI (DU-145 prostate): > 100 µM | TGI (EKVX NSCLC): > 100 µM | TGI (UO-31 renal): > 100 µM | TGI (RPMI-8226 leukemia): > 100 µM | TGI (TK-10 renal): > 100 µM

Cc1nc2ccccc2n1CCc1nc2ccccc2s1
TGI (SK-MEL-2 melanoma): > 100 µM | TGI (SNB-75 CNS): > 100 µM | TGI (OVCAR-8 ovarian): > 100 µM | TGI (MDA-MB-435): > 100 µM | TGI (DU-145 prostate): > 100 µM | TGI (EKVX NSCLC): > 100 µM | TGI (HCC-2998 colon): > 100 µM | TGI (RPMI-8226 leukemia): > 100 µM | TGI (TK-10 renal): > 100 µM

Cc1cc2ccccc2c[n+]1CC(=O)CC([O-])(C(F)(F)F)C(F)(F)F
TGI (SK-MEL-2 melanoma): > 100 µM | TGI (SNB-75 CNS): > 100 µM | TGI (OVCAR-8 ovarian): > 100 µM | TGI (MDA-MB-435): > 100 µM | TGI (DU-145 prostate): > 100 µM | TGI (EKVX NSCLC): > 100 µM | TGI (UO-31 renal): > 100 µM | TGI (HCC-2998 colon): > 100 µM | TGI (RPMI-8226 leukemia): > 100 µM

O=S1(=O)c2ccccc2N2CCCc3cc(Cl)cc1c32
TGI (SK-MEL-2 melanoma): > 100 µM | TGI (SNB-75 CNS): 29.9 µM | TGI (OVCAR-8 ovarian): > 100 µM | TGI (MDA-MB-435): > 100 µM | TGI (DU-145 prostate): > 100 µM | TGI (EKVX NSCLC): > 100 µM | TGI (UO-31 renal): > 100 µM | TGI (HCC-2998 colon): > 100 µM

COC(=O)CC1C2CC3C(C2=O)C13 (stereo not given)
TGI (SK-MEL-2 melanoma): > 100 µM | TGI (SNB-75 CNS): > 100 µM | TGI (OVCAR-8 ovarian): > 100 µM | TGI (MDA-MB-435): > 100 µM | TGI (DU-145 prostate): > 100 µM | TGI (EKVX NSCLC): > 100 µM | TGI (UO-31 renal): > 100 µM | TGI (HCC-2998 colon): > 100 µM | TGI (TK-10 renal): > 100 µM

COc1cc2c(cc1OCCCC(=O)Nc1cc(C(=O)Nc3cc(C(=O)NCCCN(C)C)n(C)n3)n(C)n1)N=CC1CCCN1C2=O (stereo not given)
TGI (SK-MEL-2 melanoma): 31.2 µM | TGI (OVCAR-8 ovarian): 53.2 µM | TGI (MDA-MB-435): 39 µM | TGI (DU-145 prostate): 32.2 µM | TGI (EKVX NSCLC): > 100 µM | TGI (UO-31 renal): 30.4 µM | TGI (HCC-2998 colon): 37.9 µM | TGI (RPMI-8226 leukemia): 40.3 µM | TGI (TK-10 renal): 35.7 µM

CCCCCC(C)C[C@H]1CO[C@H](c2ccc[nH]2)N[C@H]1C(=O)OC (stereo not given in full)
TGI (SK-MEL-2 melanoma): > 100 µM | TGI (OVCAR-8 ovarian): > 100 µM | TGI (MDA-MB-435): > 100 µM | TGI (DU-145 prostate): > 100 µM | TGI (EKVX NSCLC): > 100 µM | TGI (HCC-2998 colon): > 100 µM | TGI (RPMI-8226 leukemia): > 100 µM | TGI (TK-10 renal): > 100 µM

CC(=O)C(=C(I)I)c1ccccc1
TGI (SK-MEL-2 melanoma): 53.6 µM | TGI (OVCAR-8 ovarian): 39.6 µM | TGI (MDA-MB-435): 29.9 µM | TGI (DU-145 prostate): 60.4 µM | TGI (EKVX NSCLC): 49.3 µM | TGI (UO-31 renal): 33.8 µM | TGI (HCC-2998 colon): 72 µM

Cc1nc2c(Br)cc(Br)cc2c(=O)n1-c1ccccc1N
TGI (SK-MEL-2 melanoma): 58.1 µM | TGI (SNB-75 CNS): 87.3 µM | TGI (OVCAR-8 ovarian): > 100 µM | TGI (MDA-MB-435): > 100 µM | TGI (DU-145 prostate): > 100 µM | TGI (EKVX NSCLC): > 100 µM | TGI (UO-31 renal): 83.8 µM | TGI (HCC-2998 colon): > 100 µM

CN(C)c1ccc(C(c2ccc(N(C)C)cc2)c2ccc([N+](=O)[O-])cc2)cc1
TGI (SK-MEL-2 melanoma): > 100 µM | TGI (OVCAR-8 ovarian): > 100 µM | TGI (MDA-MB-435): > 100 µM | TGI (DU-145 prostate): > 100 µM | TGI (EKVX NSCLC): > 100 µM | TGI (UO-31 renal): > 100 µM | TGI (HCC-2998 colon): > 100 µM | TGI (RPMI-8226 leukemia): > 100 µM | TGI (TK-10 renal): > 100 µM

CN(C)CCCOC(=O)C(O)(Cc1ccccc1)C1CC1 (stereo not given)
TGI (SK-MEL-2 melanoma): > 100 µM | TGI (SNB-75 CNS): > 100 µM | TGI (OVCAR-8 ovarian): > 100 µM | TGI (MDA-MB-435): > 100 µM | TGI (DU-145 prostate): > 100 µM | TGI (EKVX NSCLC): > 100 µM | TGI (HCC-2998 colon): > 100 µM | TGI (RPMI-8226 leukemia): > 100 µM | TGI (TK-10 renal): > 100 µM

CCN(CC)C(=O)CCCCCCCCC1CO1 (stereo not given)
TGI (SK-MEL-2 melanoma): > 100 µM | TGI (SNB-75 CNS): > 100 µM | TGI (OVCAR-8 ovarian): > 100 µM | TGI (MDA-MB-435): > 100 µM | TGI (DU-145 prostate): > 100 µM | TGI (EKVX NSCLC): > 100 µM | TGI (UO-31 renal): > 100 µM | TGI (RPMI-8226 leukemia): > 100 µM | TGI (TK-10 renal): > 100 µM

O=C(CCCC(=O)N1CC(CCl)c2ccc([N+](=O)[O-])cc21)N1CC(CCl)c2ccc([N+](=O)[O-])cc21 (stereo not given)
TGI (SK-MEL-2 melanoma): > 100 µM | TGI (MDA-MB-435): > 100 µM | TGI (DU-145 prostate): > 100 µM | TGI (UO-31 renal): > 100 µM | TGI (HCC-2998 colon): > 100 µM | TGI (RPMI-8226 leukemia): > 100 µM | TGI (TK-10 renal): > 100 µM

O=C(c1cccs1)N(C(=O)N1CCC(c2ccccc2)CC1)c1ccccc1
TGI (SK-MEL-2 melanoma): > 100 µM | TGI (OVCAR-8 ovarian): > 100 µM | TGI (MDA-MB-435): > 100 µM | TGI (DU-145 prostate): > 100 µM | TGI (EKVX NSCLC): 52.9 µM | TGI (UO-31 renal): 76.9 µM | TGI (RPMI-8226 leukemia): 70.3 µM | TGI (TK-10 renal): > 100 µM

CC(NC(=O)c1ccc(OP(=O)(OCC2=CC(=O)c3ccccc3C2=O)N(C)CCCCCl)cc1)c1ccc(OCC2CCCCC2)c(C(N)=O)c1 (stereo not given)
TGI (SK-MEL-2 melanoma): 30.2 µM | TGI (SNB-75 CNS): 19.5 µM | TGI (OVCAR-8 ovarian): 29.6 µM | TGI (MDA-MB-435): 5.68 µM | TGI (DU-145 prostate): 16.7 µM | TGI (UO-31 renal): 21.9 µM | TGI (HCC-2998 colon): 4.05 µM | TGI (RPMI-8226 leukemia): 30.6 µM | TGI (TK-10 renal): 61.7 µM

CC(Nc1cc(Cl)cc(Cl)c1)c1ccncc1 (stereo not given)
TGI (SNB-75 CNS): 63.1 µM | TGI (OVCAR-8 ovarian): 43 µM | TGI (MDA-MB-435): 47.5 µM | TGI (EKVX NSCLC): 59.9 µM | TGI (UO-31 renal): 27.3 µM | TGI (HCC-2998 colon): 37.1 µM | TGI (RPMI-8226 leukemia): 42.5 µM | TGI (TK-10 renal): > 100 µM

C/C(=N/O)c1cccc(Nc2nc3ccccc3c3[nH]c4ccccc4c23)c1
TGI (SK-MEL-2 melanoma): 5.8 µM | TGI (SNB-75 CNS): 6.95 µM | TGI (OVCAR-8 ovarian): > 24.4 µM | TGI (MDA-MB-435): 7.52 µM | TGI (DU-145 prostate): 5.59 µM | TGI (EKVX NSCLC): 7.38 µM | TGI (UO-31 renal): 12 µM | TGI (TK-10 renal): 15.6 µM

Clc1ccc(OCc2nnc(CCCCCCCCc3nnc(COc4ccc(Cl)cc4Cl)o3)o2)c(Cl)c1
TGI (SK-MEL-2 melanoma): > 100 µM | TGI (SNB-75 CNS): > 100 µM | TGI (MDA-MB-435): > 100 µM | TGI (DU-145 prostate): > 100 µM | TGI (EKVX NSCLC): > 100 µM | TGI (UO-31 renal): > 100 µM | TGI (HCC-2998 colon): > 100 µM | TGI (RPMI-8226 leukemia): > 100 µM | TGI (TK-10 renal): > 100 µM

C=C[C@H]1CN2CC[C@H]1C[C@@H]2[C@@H](O)c1ccnc2ccccc12
TGI (SK-MEL-2 melanoma): > 100 µM | TGI (SNB-75 CNS): > 100 µM | TGI (OVCAR-8 ovarian): > 100 µM | TGI (MDA-MB-435): > 100 µM | TGI (DU-145 prostate): > 100 µM | TGI (EKVX NSCLC): > 100 µM | TGI (UO-31 renal): > 100 µM | TGI (RPMI-8226 leukemia): 90 µM | TGI (TK-10 renal): > 100 µM

C=C1CCCCCCCCCCC1S(=O)c1ccccc1 (stereo not given)
TGI (SK-MEL-2 melanoma): > 100 µM | TGI (MDA-MB-435): 59.3 µM | TGI (DU-145 prostate): > 100 µM | TGI (EKVX NSCLC): > 100 µM | TGI (UO-31 renal): 39.6 µM | TGI (HCC-2998 colon): > 100 µM | TGI (RPMI-8226 leukemia): 54.4 µM
